Earlier results, collected in PubChem BioAssay AID1259409 (Chemical Carcinogenesis Research Information System (CCRIS), 2018).

Tested on: rodent chemically induced tumor inhibition, incidence and multiplicity
Experiment: CCRIS tumor inhibitor studies

O=S(=O)(O)CCSSCCS(=O)(=O)O
tumour outcome (control, treated, inhibition, significance) (Carcinogen: CYCLOPHOSPHAMIDE, 50-18-0, Dose [Inhibitor]: 12 MG/KG BW IN DRINKING WATER 5/WK FOR 20 MO SIMULTANEOUSLY WITH CARCINOGEN TREATMENT (STUDY DURATION: 20 MO), Route [Inhibitor]: ORAL, Species: RAT, Strain/Sex: SPRAGUE-DAWLEY/MALE, Target Tissue: Type of Lesion: NERVOUS TISSUE: NEOPLASM, Dose [Carcinogen]: 2.5 MG/KG BW IN DRINKING WATER 5/WK FOR 20 MO, Promoter: NONE USED): 14%, 15%, -7%, not calculated
tumour outcome (control, treated, inhibition, significance) (Carcinogen: CYCLOPHOSPHAMIDE, 50-18-0, Dose [Inhibitor]: 12 MG/KG BW IN DRINKING WATER 5/WK FOR 20 MO SIMULTANEOUSLY WITH CARCINOGEN TREATMENT (STUDY DURATION: 20 MO), Route [Inhibitor]: ORAL, Species: RAT, Strain/Sex: SPRAGUE-DAWLEY/MALE, Target Tissue: Type of Lesion: URINARY BLADDER: TUMOR, Dose [Carcinogen]: 2.5 MG/KG BW IN DRINKING WATER 5/WK FOR 20 MO, Promoter: NONE USED): 30%, 12%, 60%, p>0.0005*
tumour outcome (control, treated, inhibition, significance) (Carcinogen: CYCLOPHOSPHAMIDE, 50-18-0, Dose [Inhibitor]: 12 MG/KG BW IN DRINKING WATER 5/WK FOR DURATION OF STUDY SIMULTANEOUSLY WITH CARCINOGEN TREATMENT (STUDY DURATION: LIFE), Route [Inhibitor]: ORAL, Species: RAT, Strain/Sex: SPRAGUE-DAWLEY/MALE, Target Tissue: Type of Lesion: URINARY BLADDER: PAPILLOMA, CARCINOMA, Dose [Carcinogen]: 2.5 MG/KG BW IN DRINKING WATER 5/WK FOR DURATION OF STUDY, Promoter: NONE USED): 32/100 (32%), 7/50 (14%), 56%, p<0.00005*
tumour outcome (control, treated, inhibition, significance) (Carcinogen: CYCLOPHOSPHAMIDE, 50-18-0, Dose [Inhibitor]: 35 MG/KG BW IN DRINKING WATER 5/WK FOR 20 MO SIMULTANEOUSLY WITH CARCINOGEN TREATMENT (STUDY DURATION: 20 MO), Route [Inhibitor]: ORAL, Species: RAT, Strain/Sex: SPRAGUE-DAWLEY/MALE, Target Tissue: Type of Lesion: NERVOUS TISSUE: NEOPLASM, Dose [Carcinogen]: 2.5 MG/KG BW IN DRINKING WATER 5/WK FOR 20 MO, Promoter: NONE USED): 14%, 15%, -7%, not calculated
tumour outcome (control, treated, inhibition, significance) (Carcinogen: CYCLOPHOSPHAMIDE, 50-18-0, Dose [Inhibitor]: 35 MG/KG BW IN DRINKING WATER 5/WK FOR 20 MO SIMULTANEOUSLY WITH CARCINOGEN TREATMENT (STUDY DURATION: 20 MO), Route [Inhibitor]: ORAL, Species: RAT, Strain/Sex: SPRAGUE-DAWLEY/MALE, Target Tissue: Type of Lesion: URINARY BLADDER: TUMOR, Dose [Carcinogen]: 2.5 MG/KG BW IN DRINKING WATER 5/WK FOR 20 MO, Promoter: NONE USED): 30%, 6%, 80%, p>0.0005*
tumour outcome (control, treated, inhibition, significance) (Carcinogen: CYCLOPHOSPHAMIDE, 50-18-0, Dose [Inhibitor]: 35 MG/KG BW IN DRINKING WATER 5/WK FOR DURATION OF STUDY SIMULTANEOUSLY WITH CARCINOGEN TREATMENT (STUDY DURATION: LIFE), Route [Inhibitor]: ORAL, Species: RAT, Strain/Sex: SPRAGUE-DAWLEY/MALE, Target Tissue: Type of Lesion: URINARY BLADDER: PAPILLOMA, CARCINOMA, Dose [Carcinogen]: 2.5 MG/KG BW IN DRINKING WATER 5/WK FOR DURATION OF STUDY, Promoter: NONE USED): 32/100 (32%), 3/50 (6%), 81%, p<0.00005*

CCCCCCCC/C=C\CCCCCCCC(=O)O
tumour outcome (control, treated, inhibition, significance) (Carcinogen: 1,2-DIMETHYLHYDRAZINE, 540-73-8, Dose [Inhibitor]: 0, 1 MG/D FOR 25 WK BEGINNING 3 WK PRIOR TO CARCINOGEN (STUDY DURATION: 25 WK), Route [Inhibitor]: ORAL, Species: RAT, Strain/Sex: CD-1/MALE, Target Tissue: Type of Lesion: COLON: TUMOR, Dose [Carcinogen]: 15 MG/KG 1/WK FOR 16 WK): 17/22 (77%), 19/22 (86%), -12%, not significant
tumour outcome (control, treated, inhibition, significance) (Carcinogen: BENZO[A]PYRENE, 50-32-8, Dose [Inhibitor]: 25 MG IN 0.1 ML ACETONE 3/WK ADMINISTERED SIMULTANEOUSLY WITH CARCINOGEN FOR DURATION OF STUDY (STUDY DURATION: 440 D), Route [Inhibitor]: DERMAL, Species: MOUSE, Strain/Sex: ICR/FEMALE, Target Tissue: Type of Lesion: SKIN: PAPILLOMA, Dose [Carcinogen]: 5 UG IN 0.1 ML ACETONE 3/WK FOR DURATION OF STUDY, Promoter: NONE USED): 16/50 (32%), 0/50 (0%), 100%, not calculated
tumour outcome (control, treated, inhibition, significance) (Carcinogen: BENZO[A]PYRENE, 50-32-8, Dose [Inhibitor]: 25 MG IN 0.1 ML ACETONE 3/WK ADMINISTERED SIMULTANEOUSLY WITH CARCINOGEN FOR DURATION OF STUDY (STUDY DURATION: 440 D), Route [Inhibitor]: DERMAL, Species: MOUSE, Strain/Sex: ICR/FEMALE, Target Tissue: Type of Lesion: SKIN: SQUAMOUS CARCINOMA, Dose [Carcinogen]: 5 UG IN 0.1 ML ACETONE 3/WK FOR DURATION OF STUDY, Promoter: NONE USED): 12/50 (24%), 0/50 (0%), 100%, not calculated

C[C@]12CC[C@@H]3c4ccc(OC(=O)c5ccccc5)cc4CC[C@H]3[C@@H]1CC[C@@H]2O
tumour outcome (control, treated, inhibition, significance) (Carcinogen: 1,2-DIMETHYLHYDRAZINE DIHYDROCHLORIDE, 306-37-6, Dose [Inhibitor]: 0, 15 UG/KG IN PEANUT OIL ON DAYS 1 AND 3 OF STUDY THEN 1/WK FOR 30 WK (STUDY DURATION: 31 WK), Route [Inhibitor]: SUBCUTANEOUS, Species: RAT, Strain/Sex: SPRAGUE-DAWLEY/MALE, Target Tissue: Type of Lesion: COLON: ADENOCARCINOMA, Dose [Carcinogen]: 9 MG/KG 1/WK FOR 7 WK THEN 19.4 MG/KG 1/WK FOR 13 WK, Promoter: NONE USED): 14/14 (100%), 14/14 (100%), 0%, not significant
tumour outcome (control, treated, inhibition, significance) (Carcinogen: 1,2-DIMETHYLHYDRAZINE DIHYDROCHLORIDE, 306-37-6, Dose [Inhibitor]: 0, 15 UG/KG IN PEANUT OIL ON DAYS 1 AND 3 OF STUDY THEN 1/WK FOR 30 WK (STUDY DURATION: 31 WK), Route [Inhibitor]: SUBCUTANEOUS, Species: RAT, Strain/Sex: SPRAGUE-DAWLEY/MALE, Target Tissue: Type of Lesion: SMALL INTESTINE: ADENOCARCINOMA, Dose [Carcinogen]: 9 MG/KG 1/WK FOR 7 WK THEN 19.4 MG/KG 1/WK FOR 13 WK, Promoter: NONE USED): 13/14 (93%), 11/14 (79%), 15%, not significant
